This note sets out measurements from ChEMBL document CHEMBL5335778, “Bench-to-bedside: Innovation of small molecule anti-SARS-CoV-2 drugs in China” (Eur J Med Chem, 2023).

The subject of the first test is SARS-CoV-2. The experiment in a line: Antiviral activity against SARS-CoV-2 Omicron BA1 variant infected human A549-ACE2 cells assessed as inhibition of viral replication. The settings on record: Severe acute respiratory syndrome coronavirus 2, Omicron BA1, A549-ACE2. The class given is functional, organism-based.
The EC50 is the concentration giving half of the maximal effect. Take `Br.[2H]c1cc([C@]2(C#N)O[C@H](COC(=O)C(C)C)[C@@H](OC(=O)C(C)C)[C@H]2OC(=O)C(C)C)n2ncnc(N)c12` [DEUREMIDEVIR HYDROBROMIDE]: the EC50 was determined as 0.3 µM.

Another test concerns SARS-CoV-2. Briefly: Antiviral activity against SARS-CoV-2 variant Omicron BA.2 infected in African green monkey Vero E6 cells assessed as reduction in virus-induced cytopathic effect. The class given is functional, organism-based. The settings on record: Severe acute respiratory syndrome coronavirus 2, Omicron BA.2, Vero C1008. (Cytopathic effects are the visible damage that an infection or toxin causes in cultured cells.)
For the compound `COc1cccc2[nH]c(C(=O)N[C@@H](CC(C)C)C(=O)N[C@@H](C[C@@H]3CCCNC3=O)C(=O)COC(=O)c3c(C(F)(F)F)cccc3C(F)(F)F)cc12`, the concentration giving a half-maximal response (EC50) was 0.0217 µM.
Same read-out and setting: the value for `CC(C)C[C@H](NC(=O)c1cc2c(F)cccc2[nH]1)C(=O)NN(C[C@@H]1CCNC1=O)C(=O)[C@@H](F)Cl` was 0.0171 µM.
On the same count and under the same terms, to `C[C@H](OC(C)(C)C)[C@H](NC(=O)OCc1ccccc1)C(=O)N[C@@H](CC1CCCCC1)C(=O)N[C@H](C=O)C[C@@H]1CCNC1=O` belongs 0.0217 µM; to `N#Cc1ccccc1-c1cc(-c2cc(Cl)cc(OCC3CC3)c2)c(=O)n(-c2cccnc2)c1`, 0.0171 µM.
With `C[C@H](NC(=O)[C@@H](c1cccnc1)N(C(=O)c1ccco1)c1ccc(-c2ccccc2)cc1)c1ccccc1`, the EC50 amounted to 0.0217 µM.
Still for that read-out and setting: the value for `CC(C)C[C@H](NC(=O)OCc1ccccc1)C(=O)N[C@@H](C[C@@H]1CCNC1=O)C(O)S(=O)(=O)O` (some centres undefined) was 0.0217 µM; that for `CC(C)C[C@H](NC(=O)OCC1C[C@H]2CCC[C@@H](C1)C2)C(=O)N[C@H](C=O)C[C@@H]1CCNC1=O` (some centres undefined) was 0.0217 µM; that for `C[C@H](NC(=O)[C@@H](c1cccnc1)N(C(=O)C(Cl)Cl)c1ccc(-c2ccccc2)cc1)c1ccccc1` was 0.0217 µM.
On the same count and under the same terms, to `COc1cccc2[nH]c(C(=O)N[C@@H](CC(C)C)C(=O)N[C@@H](C[C@@H]3CCNC3=O)C(=O)CO)cc12` [PF-00835231] belongs 0.0217 µM.
In the case of `CSc1ccc2c(c1)NC(=O)C(F)(F)C2=O`, the EC50 turned out to be 0.0171 µM.
For the compound `O=C1N(c2cncc3ccccc23)CNC12CC(c1ccccc1Cl)C2` (centres undefined), the concentration giving a half-maximal response (EC50) amounted to 0.0171 µM.
As for `CC(C)(C)OC(=O)Nc1cccn([C@@H](CC2CC2)C(=O)N[C@@H](C[C@@H]2CCNC2=O)C(=O)C(=O)NCc2ccccc2)c1=O`, the EC50 turned out to be 0.0171 µM.

The subject of another test is SARS-CoV-2. The experiment in a line: Antiviral activity against SARS-CoV-2 Omicron BA1 variant infected in human A549-ACE2 cells assessed as reduction in viral load measured upto 4 days by viral plaque assay. The class given is functional, organism-based. The note with it: Severe acute respiratory syndrome coronavirus 2, A549-ACE2, 96 h.
As to `COc1ccc2cc1Oc1ccc(cc1)C[C@H]1c3c(cc4c(c3Oc3cc5c(cc3OC)CCN(C)[C@@H]5C2)OCO4)CCN1C` [CEPHARANTHINE], the EC50 came out at 0.1 µM.
